# Experimental data taken from patent US20240082228A1, “SARS-COV-2 THERAPEUTICS” (priority 2021, published 2024).
# Values joined by “and” are separate entries in the source; they are usually repeats but may differ in a detail not shown here. Equal entries are not always repeated.
# System: not given
# Experiment: not given
# Conditions: 1 uM; call rule not given here
row,SMILES,Toxic (1 uM)
1,"Cc1cncc(CN2CCC(=C3c4ccc(Cl)cc4CCc4cccnc43)CC2)c1 [Rupatadine, rupatadine]",0 (non-toxic (Normalized Cell number>0.65)
2,"C[C@@H]1CN(Cc2ccc(F)cc2)[C@@H](C)CN1C(=O)c1cc2c(C(=O)C(=O)N(C)C)cn(C)c2cc1Cl [SCIO 469, talmapimod]",0 (non-toxic (Normalized Cell number>0.65)
3,"CC(C(=O)O)c1ccc(C(=O)c2ccccc2)s1 (stereo not drawn) [Tiaprofenic Acid, tiaprofenic acid]",0 (non-toxic (Normalized Cell number>0.65)

# Same assay, conditions: 5 uM
row,SMILES,Toxic (5 uM)
1,"Cc1cncc(CN2CCC(=C3c4ccc(Cl)cc4CCc4cccnc43)CC2)c1 [Rupatadine, rupatadine]",0 (non-toxic (Normalized Cell number>0.65)
2,"C[C@@H]1CN(Cc2ccc(F)cc2)[C@@H](C)CN1C(=O)c1cc2c(C(=O)C(=O)N(C)C)cn(C)c2cc1Cl [SCIO 469, talmapimod]",0 (non-toxic (Normalized Cell number>0.65)
3,"CC(C(=O)O)c1ccc(C(=O)c2ccccc2)s1 (stereo not drawn) [Tiaprofenic Acid, tiaprofenic acid]",0 (non-toxic (Normalized Cell number>0.65)

# Same assay, conditions: compound at 1 uM, average of normalized cell number, n=3, relative to DMSO
row,SMILES,Average Cell Number (1 uM)
1,"Cc1cncc(CN2CCC(=C3c4ccc(Cl)cc4CCc4cccnc43)CC2)c1 [Rupatadine, rupatadine]",0.795
2,"C[C@@H]1CN(Cc2ccc(F)cc2)[C@@H](C)CN1C(=O)c1cc2c(C(=O)C(=O)N(C)C)cn(C)c2cc1Cl [SCIO 469, talmapimod]",0.7439
3,"CC(C(=O)O)c1ccc(C(=O)c2ccccc2)s1 (stereo not drawn) [Tiaprofenic Acid, tiaprofenic acid]",0.8638

# Same assay, conditions: compound at 1 uM, single replicate, raw cell count
row,SMILES,Cell Number (1 uM)
1,"Cc1cncc(CN2CCC(=C3c4ccc(Cl)cc4CCc4cccnc43)CC2)c1 [Rupatadine, rupatadine]",4468 and 4936 and 4572
2,"C[C@@H]1CN(Cc2ccc(F)cc2)[C@@H](C)CN1C(=O)c1cc2c(C(=O)C(=O)N(C)C)cn(C)c2cc1Cl [SCIO 469, talmapimod]",3987 and 4564 and 4526
3,"CC(C(=O)O)c1ccc(C(=O)c2ccccc2)s1 (stereo not drawn) [Tiaprofenic Acid, tiaprofenic acid]",5511 and 5420 and 4255

# Same assay, conditions: compound at 1 uM, single replicate, relative to negative control DMSO
row,SMILES,Normalized Cell Number (1 uM)
1,"Cc1cncc(CN2CCC(=C3c4ccc(Cl)cc4CCc4cccnc43)CC2)c1 [Rupatadine, rupatadine]",0.7625 and 0.8423 and 0.7802
2,"C[C@@H]1CN(Cc2ccc(F)cc2)[C@@H](C)CN1C(=O)c1cc2c(C(=O)C(=O)N(C)C)cn(C)c2cc1Cl [SCIO 469, talmapimod]",0.6804 and 0.7788 and 0.7724
3,"CC(C(=O)O)c1ccc(C(=O)c2ccccc2)s1 (stereo not drawn) [Tiaprofenic Acid, tiaprofenic acid]",0.9404 and 0.9249 and 0.7261

# Same assay, conditions: compound at 5 uM, average of normalized cell number, n=3, relative to DMSO
row,SMILES,Average Cell Number (5 uM)
1,"Cc1cncc(CN2CCC(=C3c4ccc(Cl)cc4CCc4cccnc43)CC2)c1 [Rupatadine, rupatadine]",0.9184
2,"C[C@@H]1CN(Cc2ccc(F)cc2)[C@@H](C)CN1C(=O)c1cc2c(C(=O)C(=O)N(C)C)cn(C)c2cc1Cl [SCIO 469, talmapimod]",0.95
3,"CC(C(=O)O)c1ccc(C(=O)c2ccccc2)s1 (stereo not drawn) [Tiaprofenic Acid, tiaprofenic acid]",0.9679

# Same assay, conditions: compound at 5 uM, single replicate, raw cell count
row,SMILES,Cell Number (5 uM)
1,"Cc1cncc(CN2CCC(=C3c4ccc(Cl)cc4CCc4cccnc43)CC2)c1 [Rupatadine, rupatadine]",5730 and 5462 and 5136
2,"C[C@@H]1CN(Cc2ccc(F)cc2)[C@@H](C)CN1C(=O)c1cc2c(C(=O)C(=O)N(C)C)cn(C)c2cc1Cl [SCIO 469, talmapimod]",5672 and 5345 and 5872
3,"CC(C(=O)O)c1ccc(C(=O)c2ccccc2)s1 (stereo not drawn) [Tiaprofenic Acid, tiaprofenic acid]",6146 and 5679 and 5383

# Same assay, conditions: compound at 5 uM, single replicate, relative to negative control DMSO
row,SMILES,Normalized Cell Number (5 uM)
1,"Cc1cncc(CN2CCC(=C3c4ccc(Cl)cc4CCc4cccnc43)CC2)c1 [Rupatadine, rupatadine]",0.9669 and 0.9217 and 0.8667
2,"C[C@@H]1CN(Cc2ccc(F)cc2)[C@@H](C)CN1C(=O)c1cc2c(C(=O)C(=O)N(C)C)cn(C)c2cc1Cl [SCIO 469, talmapimod]",0.9571 and 0.9019 and 0.9909
3,"CC(C(=O)O)c1ccc(C(=O)c2ccccc2)s1 (stereo not drawn) [Tiaprofenic Acid, tiaprofenic acid]",1.037 and 0.9583 and 0.9083

# System: SARS-CoV-2
# Experiment: microbe, parasite or virus in culture
# Format: cell-based
# Conditions: not given
SMILES,Average Infection (1 uM),Average Infection (5 uM)
"Cc1cncc(CN2CCC(=C3c4ccc(Cl)cc4CCc4cccnc43)CC2)c1 [Rupatadine, rupatadine]",−0.7916,−0.09608

# Same assay, conditions: 1 uM
row,SMILES,"HIT (2 Std, 1 uM)"
1,"Cc1cncc(CN2CCC(=C3c4ccc(Cl)cc4CCc4cccnc43)CC2)c1 [Rupatadine, rupatadine]",HIT
2,"C[C@@H]1CN(Cc2ccc(F)cc2)[C@@H](C)CN1C(=O)c1cc2c(C(=O)C(=O)N(C)C)cn(C)c2cc1Cl [SCIO 469, talmapimod]",HIT
3,"CC(C(=O)O)c1ccc(C(=O)c2ccccc2)s1 (stereo not drawn) [Tiaprofenic Acid, tiaprofenic acid]",HIT

# Same assay, conditions: 1 uM, average log2FC infection (n=3) relative to DMSO
row,SMILES,Average Infection (1 uM)
1,"C[C@@H]1CN(Cc2ccc(F)cc2)[C@@H](C)CN1C(=O)c1cc2c(C(=O)C(=O)N(C)C)cn(C)c2cc1Cl [SCIO 469, talmapimod]",−1.039
2,"CC(C(=O)O)c1ccc(C(=O)c2ccccc2)s1 (stereo not drawn) [Tiaprofenic Acid, tiaprofenic acid]",−0.4462

# Same assay, conditions: 5 uM
row,SMILES,"HIT (2 Stdv, 5 uM)"
1,"C[C@@H]1CN(Cc2ccc(F)cc2)[C@@H](C)CN1C(=O)c1cc2c(C(=O)C(=O)N(C)C)cn(C)c2cc1Cl [SCIO 469, talmapimod]",HIT

# Same assay, conditions: 5 uM, average log2FC infection (n=3) relative to DMSO
row,SMILES,Average Infection (5 uM)
1,"C[C@@H]1CN(Cc2ccc(F)cc2)[C@@H](C)CN1C(=O)c1cc2c(C(=O)C(=O)N(C)C)cn(C)c2cc1Cl [SCIO 469, talmapimod]",−0.8454
2,"CC(C(=O)O)c1ccc(C(=O)c2ccccc2)s1 (stereo not drawn) [Tiaprofenic Acid, tiaprofenic acid]",−0.06461

# Same assay, conditions: Severe acute respiratory syndrome coronavirus 2, 1 uM, single replicate, relative to negative control DMSO; read-out: Normalized Infection (1 uM)
row,SMILES,activity at 1 µM
1,"Cc1cncc(CN2CCC(=C3c4ccc(Cl)cc4CCc4cccnc43)CC2)c1 [Rupatadine, rupatadine]",51.5%
2,"C[C@@H]1CN(Cc2ccc(F)cc2)[C@@H](C)CN1C(=O)c1cc2c(C(=O)C(=O)N(C)C)cn(C)c2cc1Cl [SCIO 469, talmapimod]",47.9%
3,"CC(C(=O)O)c1ccc(C(=O)c2ccccc2)s1 (stereo not drawn) [Tiaprofenic Acid, tiaprofenic acid]",71.2%

# Same assay, conditions: Severe acute respiratory syndrome coronavirus 2, 5 uM, single replicate, relative to negative control DMSO; read-out: Normalized Infection (5 uM)
row,SMILES,activity at 5 µM
1,"Cc1cncc(CN2CCC(=C3c4ccc(Cl)cc4CCc4cccnc43)CC2)c1 [Rupatadine, rupatadine]",88.1%
2,"C[C@@H]1CN(Cc2ccc(F)cc2)[C@@H](C)CN1C(=O)c1cc2c(C(=O)C(=O)N(C)C)cn(C)c2cc1Cl [SCIO 469, talmapimod]",57.5%

# Same assay, conditions: overall, 1 or 5 uM
row,SMILES,HIT
1,"Cc1cncc(CN2CCC(=C3c4ccc(Cl)cc4CCc4cccnc43)CC2)c1 [Rupatadine, rupatadine]",Yes
2,"C[C@@H]1CN(Cc2ccc(F)cc2)[C@@H](C)CN1C(=O)c1cc2c(C(=O)C(=O)N(C)C)cn(C)c2cc1Cl [SCIO 469, talmapimod]",Yes
3,"CC(C(=O)O)c1ccc(C(=O)c2ccccc2)s1 (stereo not drawn) [Tiaprofenic Acid, tiaprofenic acid]",Yes
